Consider 15 molecules from BindingDB's records for doi:10.1021/jm0004906 (Glaxosmithkline, 2001).

The target of this assay is T1, Gag-Pol polyprotein [588-1027]/[588-1147] (Human immunodeficiency virus 1, UniProt P04585).
T1 construct: 588-1027; 588-1147
Kind of assay: HIV-1 RT Assay. The text has this: The IC50 of reverse transcriptase is the concentration that inhibits 50% of recombinant HIV-1 RT RNA-directed DNA polymerase activity in vitro.

For the molecule `Cc1ccccc1[S+]([O-])c1cccc(N)c1C#N` (stereo not given) [2-amino-6-[(2-methylbenzene)sulfinyl]benzonitrile], the IC50 is > 21 µM. Regarding `N#Cc1ccc(Sc2cccc(N)c2C#N)cc1` [2-amino-6-[(4-cyanophenyl)sulfanyl]benzonitrile], the concentration for half-maximal inhibition (IC50) (pH 8) was > 19 µM. On the same count and under the same terms, in the case of `N#Cc1c(N)cccc1Sc1cccc(N)c1` [2-amino-6-[(3-aminophenyl)sulfanyl]benzonitrile] it was > 23 µM; in that of `N#Cc1c(N)cccc1Sc1ccccc1Br` [2-amino-6-[(2-bromophenyl)sulfanyl]benzonitrile], > 21 µM. On to `N#Cc1ccc([S+]([O-])c2cccc(N)c2C#N)cc1` (stereo not given) [2-amino-6-[(4-cyanobenzene)sulfinyl]benzonitrile], for which the 50% inhibitory concentration (IC50) was > 23 µM. Same read-out and setting: in the case of `N#Cc1ccc(S(=O)(=O)c2cccc(N)c2C#N)cc1` [2-amino-6-[(4-cyanobenzene)sulfonyl]benzonitrile] it was > 18 µM; in that of `N#Cc1c(N)cccc1[S+]([O-])c1cccc(C(F)(F)F)c1` (stereo not given) [2-amino-6-{[3-(trifluoromethyl)benzene]sulfinyl}benzonitrile], > 22 µM.

As for `N#Cc1c(N)cccc1[S+]([O-])c1ccc(Br)cc1` (stereo not given) [2-amino-6-[(4-bromobenzene)sulfinyl]benzonitrile], the IC50 was > 21 µM.

Regarding `COc1ccc([S+]([O-])c2cccc(N)c2C#N)cc1` (stereo not given) [2-amino-6-[(4-methoxybenzene)sulfinyl]benzonitrile], the IC50 was > 20 µM. Take `N#Cc1c(N)cccc1S(=O)(=O)c1ccc(Br)cc1` [2-amino-6-[(4-bromobenzene)sulfonyl]benzonitrile]: the IC50 is > 14 µM. Take `N#Cc1cccc([S+]([O-])c2cccc(N)c2C#N)c1` (stereo not given) [2-amino-6-[(3-cyanobenzene)sulfinyl]benzonitrile]: the half-inhibitory concentration (IC50) was > 15 µM. Take `N#Cc1c(N)cccc1[S+]([O-])c1ccccc1Br` (stereo not given) [2-amino-6-[(2-bromobenzene)sulfinyl]benzonitrile]: the half-inhibitory concentration (IC50) is > 19 µM. For `COc1ccc(Sc2cccc(N)c2C#N)cc1` [2-amino-6-[(4-methoxyphenyl)sulfanyl]benzonitrile], the IC50 (pH 8) is > 17 µM. Still for that read-out and setting: to `O=[N+]([O-])c1ccccc1Sc1ccccc1[N+](=O)[O-]` [Bisnitrophenylsulfide] belongs > 20 µM. Take `Cc1ccc([S+]([O-])c2cccc(N)c2C#N)cc1` (stereo not given) [2-amino-6-[(4-methylbenzene)sulfinyl]benzonitrile]: the IC50 is > 21 µM.
